Reference: PubChem BioAssay (NCI)
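Exposure lasted 48 hours, with cells grown in 96-well plates and compounds tested at five concentrations. GI50 is the concentration that inhibits growth by half. Definition used: TGI = concentration required for complete inhibition of growth.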

How the values were obtained:
Assay in all cases: DTP human tumour cell line panel, 48 h
[1] = tested on: NCI-H522 lung
[2] = tested on: HOP-62 NSCLC
[3] = tested on: HCT-15 colon
[4] = tested on: SF-539 CNS
[5] = tested on: SN12C renal
[6] = tested on: K-562 leukemia
[7] = tested on: IGROV1 ovarian
[8] = tested on: SK-MEL-28 melanoma
[9] = tested on: 786-0 renal
[10] = tested on: BT-549 breast

| Compound | TGI [1] | TGI [2] | TGI [3] | TGI [4] | TGI [5] | TGI [6] | TGI [7] | TGI [8] | TGI [9] | TGI [10] | GI50 [1] | GI50 [2] | GI50 [3] | GI50 [4] | GI50 [5] | GI50 [6] | GI50 [8] | GI50 [10] |
| --- | --- | --- | --- | --- | --- | --- | --- | --- | --- | --- | --- | --- | --- | --- | --- | --- | --- | --- |
| Cc1cc(OC(=O)Nc2ccc(Cl)cc2)ccc1C(=S)Nc1ccccc1 | > 100 µM | > 100 µM | > 100 µM | > 100 µM | > 100 µM | > 100 µM | > 100 µM | > 100 µM | > 100 µM | > 100 µM | – | – | – | – | – | – | – | – |
| COC1(c2ccccc2)NC(=S)NN=C1c1ccccc1 (configuration not stated) | 73.8 µM | > 100 µM | 64.2 µM | – | 60.8 µM | > 100 µM | > 100 µM | > 100 µM | > 100 µM | 82.8 µM | – | – | – | – | – | – | – | – |
| CC1=C2CC(C)(C)CC(=O)C2(C)CCC1=O (configuration not stated) | > 100 µM | > 100 µM | > 100 µM | > 100 µM | > 100 µM | > 100 µM | > 100 µM | > 100 µM | > 100 µM | > 100 µM | – | – | – | – | – | – | – | – |
| CC(C)(CC1(C)NC(=O)NC1=O)OCc1ccccc1 (configuration not stated) | > 100 µM | > 100 µM | > 100 µM | – | > 100 µM | > 100 µM | > 100 µM | > 100 µM | > 100 µM | > 100 µM | – | – | – | – | – | – | – | – |
| CC(C)CCCC(C)[C@H]1CCC2[C@@H]3CCC4Cc5nc6c(nc5C[C@]4(C)C3CC[C@@]21C)CC1CC[C@@H]2C(CC[C@@]3(C)C2CC[C@@H]3O)[C@@]1(C)C6 (some centres not stated) | – | > 100 µM | > 100 µM | > 100 µM | > 100 µM | > 100 µM | > 100 µM | > 100 µM | > 100 µM | > 100 µM | – | – | – | – | – | – | – | – |
| CCN(CC)Cc1ccc(Nc2c3ccccc3nc3ccccc23)cc1 | 3.56 µM | 6.84 µM | 2.56 µM | 3.45 µM | 7.66 µM | 7.69 µM | 13.9 µM | 4.69 µM | 10 µM | 23.6 µM | – | – | – | – | – | – | – | – |
| CCN(CC)C(=S)SSCCO | 20.3 µM | > 100 µM | 38.4 µM | 29.1 µM | 32.2 µM | 18 µM | – | 29.3 µM | – | 31.9 µM | 0.211 µM | > 100 µM | 17.9 µM | 15.7 µM | 17.4 µM | 4.21 µM | 15.8 µM | 16 µM |
| CCOC(=O)C(C)(Cc1ccc(O)cn1)NC(=O)c1ccccc1 (configuration not stated) | > 100 µM | > 100 µM | > 100 µM | > 100 µM | – | > 100 µM | > 100 µM | > 100 µM | > 100 µM | > 100 µM | – | – | – | – | – | – | – | – |
| COc1cccc(Nc2nc(NS(=O)(=O)c3cc(C)c(Cl)cc3S)n[nH]2)c1 | > 100 µM | > 100 µM | > 100 µM | > 100 µM | > 100 µM | > 100 µM | > 100 µM | > 100 µM | > 100 µM | > 100 µM | – | – | – | – | – | – | – | – |
| O=C1CC(=O)NC(=NN2C(=O)/C(=C/c3ccc(Cl)cc3)N=C2c2ccccc2)N1 | 23.5 µM | 30.2 µM | 30.8 µM | 32.4 µM | 32.3 µM | 28 µM | 27.4 µM | 33.6 µM | 37.5 µM | 30.1 µM | – | – | – | – | – | – | – | – |
